# Data taken from patent US8772274B1, “Anti-cancer compositions and methods” (The Penn State Research Foundation, priority 2008, dated 2014).
# Counter-ions that a name gives are not always drawn. Like-named read-outs stand apart in the source and are kept apart here.
# What was measured:
# [1] = system: MDA-MB-231 breast adenocarcinoma cells; test: MTS cell viability assay, MDA-MB-231; format: cell-based, human; settings: MDA-MB-231 breast adenocarcinoma; 24 h; MTS; read-out: Inhibition Cancer Cells IC50, MDA-MB-231 (Table III)
# Procedure: (§1) Growth inhibitory effects on cultured cells from human vertical growth phase (VGP) melanoma cell line WM115, Lung adenocarcinoma (A549), fibrosarcoma (HT-1080), prostate adenocarcinoma (PC-3), ovarian carcinoma (OVCAR-3), and breast adenocarcinoma (MDA-MB-231) are plated in 96 well plates at a density of 5×10^3 cells/well in 100 μl media. […] Dose response curves for each compound are generated and the IC50 values (μM) determined using GraphPad Prism software. Each experiment is replicated at least 3 times and the average IC50 (μM) values with standard error represented.
# [2] = system: HCT-116 colorectal adenocarcinoma cells; test: MTS cell viability assay, HCT-116; format: cell-based
# [3] = system: normal human fibroblast cells (FF2441); test: MTS cell viability assay, normal fibroblasts; format: cell-based; settings: FF2441; 24-72 hours; MTS; read-out: Inhibition of growth IC50, Fibroblast cells (FF2441) (Table II)
# Procedure: (§2) 5×10^3 cells per well in 100 μl DMEM-10% FBS are grown in a 96-well plate for 36 or 72 hours, respectively for melanoma (UACC 903, 1205 Lu and WM115) and human fibroblast (FF2441) cell lines and treated with either PBS vehicle or increasing concentrations (3.5-21 μM) of PBIT, PBISe, PEIT or PEISe for 24 hours. Cellular viability compared to control treated cells is measured using the MTS assay (Promega, Madison, Wis.). IC50 (μM) values for each compound in respective cell lines is determined from three independent experiments using GraphPad Prism version 4.01 (GraphPad, San Diego, Calif.), bars, SEM.
# Viability of colon adenocarcinoma cells (Caco-2, HT 29, HCT 116, SW 480) and normal fibroblast cells (FF2441) treated with PBIT (1), PBISe (2), PEIT (3) or PEISe (4) is compared. The IC50 value is evaluated by treating with increasing concentrations of PBIT, PEIT, PEISe (10-100 μM) or PBISe (1.6-50 μM) for 24-72 hours and the number of viable cell are quantified using MTS (Promega, Wis.).
# WM115 melanoma cell line = test: MTS cell viability assay, WM115
# Procedure: as §2
# Growth inhibitory effects on cultured cells from human vertical growth phase (VGP) melanoma cell line WM115, Lung adenocarcinoma (A549), fibrosarcoma (HT-1080), prostate adenocarcinoma (PC-3), ovarian carcinoma (OVCAR-3), and breast adenocarcinoma (MDA-MB-231) are plated in 96 well plates at a density of 5×10^3 cells/well in 100 μl media. The cells are treated 36 hours later with PBISe (0.19-100 μM), PBIT (10-100 μM), PEIT 10-100 μM), or PEISe (10-100 μM) for 24 h and cell viability measured using MTS assay. Dose response curves for each compound are generated and the IC50 values (μM) determined using GraphPad Prism software. Each experiment is replicated at least 3 times and the average IC50 (μM) values with standard error represented.
# [4] = system: 1205Lu melanoma cell line; test: MTS cell viability assay, 1205Lu; format: cell-based; settings: read-out: IC50, 1205Lu (Table I)
# Procedure: (§3) Cellular viability compared to control treated cells is measured using the MTS assay (Promega, Madison, Wis.).
# [5] = system: OVCAR-3 ovarian carcinoma cells; test: MTS cell viability assay, OVCAR-3; format: cell-based, human; settings: OVCAR-3 ovarian carcinoma; 24 h; MTS; read-out: Inhibition Cancer Cells IC50, OVCAR-3 (Table III)
# Procedure: as §1
# [6] = system: HT-1080 fibrosarcoma cells; test: MTS cell viability assay, HT-1080; format: cell-based, human; settings: HT-1080 fibrosarcoma; 24 h; MTS; read-out: Inhibition Cancer Cells IC50, HT-1080 (Table III)
# Procedure: as §1
# [7] = system: PC-3 prostate adenocarcinoma cells; test: MTS cell viability assay, PC-3; format: cell-based, human; settings: PC-3 prostate adenocarcinoma; 24 h; MTS; read-out: Inhibition Cancer Cells IC50, PC-3 (Table III)
# Procedure: as §1
# [8] = system: A549, Caco-2, HT-1080, PC-3, OVCAR-3, MDA-MB-231, WM115; test: MTS viability, all cancer cell lines tested (summary); format: cell-based, human; settings: Table III; read-out: concentration decreasing cell viability by 50% (IC50), cancer cell lines of Table III
# Procedure: as §1
# [9] = system: Caco-2 colon adenocarcinoma cells; test: MTS cell viability assay, Caco-2; settings: MTS
# Procedure: In vitro inhibitory efficacy is measured using 3-(4,5-dimethylthiazol-2-yl)-5-(3-carboxymethoxyphenyl)-2-(4-sulfophenyl)-2H-tetrazolium (MTS) assay (Promega, Madison, Wis.). […] Cells are treated with either vehicle control, PBS, PBIT (40-120 μM) or PBISe (2.4-10 μM) for 72 h. The percentages of viable cells compared to control PBS treated cells are determined using MTS assay and IC50 values calculated using GraphPad Prism version 4.01 (GraphPad software, San Diego, Calif.). An IC50 value for each compound is determined by at least three independent experiments and represented with a standard error.
# (§4) The IC50 value is evaluated by treating with increasing concentrations of PBIT, PEIT, PEISe (10-100 μM) or PBISe (1.6-50 μM) for 24-72 hours and the number of viable cell are quantified using MTS (Promega, Wis.).
# [10] = Toxicity of topical application in vivo
# Procedure: Blood collected from the control and experimental animals, at the end of treatment (day 29), are analyzed for SGOT, SGPT (representing liver and cardiac toxicity) and alkaline phosphatase (for kidney and cardiac toxicity). Additionally, concentrations of metabolites (glucose, creatinine, urea nitrogen and total protein) in serum are also determined.
# [11] = system: colon adenocarcinoma cells (Caco-2, HT 29, HCT 116, SW 480); test: MTS viability, four colon cancer cell lines (summary); format: cell-based; settings: Caco-2, HT 29, HCT 116, SW 480; 24-72 hours; read-out: IC50 range, four colon cancer cell lines
# Procedure: as §4
# [12] = system: HT-29 colorectal adenocarcinoma cells; test: MTS cell viability assay, HT-29; format: cell-based
# [13] = system: UACC 903 melanoma cell line; test: MTS cell viability assay, UACC 903; format: cell-based; settings: read-out: IC50, UACC 903 (Table I)
# Procedure: as §3
# [14] = system: PI3 kinase/Akt3 and MAP kinase signaling in UACC 903 cells; test: Western blot analysis of melanoma cell lysates; format: cell-based; settings: melanoma cells
# Procedure: Melanoma cell line UACC 903 cells (1×10^6) are treated with increasing concentrations (7-21 μM) of PBIT and PBISe for 24 hours and cell lysates examined by Western blot analysis Cell lysates are harvested by addition of lysis buffer containing 50 mM HEPES (pH 7.5), 150 mM NaCl, 10 mM EDTA, 10% glycerol, 1% Triton X-100, 1 mM sodium orthovanadate, 0.1 mM sodium molybdate, 1 mM phenylmethylsulfonyl fluoride, 20 μg/ml aprotinin, and 5 μg/ml leupeptin. Whole cell lysates are centrifuged (≧10,000×g) for 10 minutes at 4° C. to remove cell debris. Protein concentrations are quantitated using the BCA assay (Pierce, Rockford, Ill.), and 30 μg of lysate loaded per lane onto NuPAGE Gels (Life Technologies, Carlsbad, Calif.). Following electrophoresis, samples are transferred to polyvinylidene difluoride membrane (Pall Corporation, Pensacola, Fla.). Blots are probed with antibodies to PRAS40 and phosphorylated PRAS40 (Thr246) (Invitrogen, Carlsbad, Calif.); antibodies to iNOS, cyclin D1, p27, p21, Erk2, α-enolase and secondary antibodies conjugated with horseradish peroxidase from Santa Cruz Biotechnology (Santa Cruz, Calif.); and antibodies to Akt3, phosphorylated-Akt (Ser473), phosphorylated-Erk 1/2 (Thr202/Tyr204), caspase-3 and cleaved PARP from Cell Signaling Technology (Danvers, Mass.). Immunoblots are developed using ECL (Pierce, Rockford, Ill.).
# [15] = system: A549 lung adenocarcinoma cells; test: MTS cell viability assay, A549; format: cell-based, human; settings: A549 lung carcinoma; 24 h; MTS; read-out: Inhibition Cancer Cells IC50, A549 (Table III)
# Procedure: as §1
# [16] = system: iNOS (total nitrate+nitrite in Caco-2 cells); test: Nitrite estimation (nitrate/nitrite colorimetric assay); format: cell-based; settings: 80 μM, 72 hours
# Procedure: Nitrite content in cell culture media is determined using a nitrate/nitrite colorimetric assay kit (Cayman Chemical Company, Ann Arbor, Mich.) essentially as described in Salvucci, O. et al., Cancer Res 2001; 61:318-26. Caco-2 cells (1×10^6) are plated in 60 mm culture dishes in advanced DMEM containing 10% heat treated FBS for 12 hours, growing cells conditioned with phenol-red free DMEM containing 0.5% FBS for an additional 12 hours. Cells are then treated with increasing concentrations of PBIT (40 and 80 μM) or PBISe (2 and 4 μM) dissolved in phenol-red free DMEM (2 ml) containing 0.5% FBS for 72 hours. Culture supernatants are collected and total nitrite (nitrate+nitrite) measured by incubating 80 μL supernatant with enzyme cofactor mixture (10 μL) and nitrate reductase (10 μL) for 2 hours. Total nitrite is measured by the addition of Griess reagent-I and II (50 μL each). A nitrate standard curve (5-35 μM) is simultaneously prepared. Total nitrite present in media alone is subtracted from all experimental values and represented as micromolar nitrite produced following each treatment.
# [17] = system: SW-480 colorectal adenocarcinoma cells; test: MTS cell viability assay, SW-480; format: cell-based; settings: Homo sapiens, SW480, read-out: Inhibition of growth IC50, last Colorectal adenocarcinoma row (Table II)
# [18] = read-out: Inhibition of growth IC50, Caco-2 (Table II), Caco-2, 24-72 hours
smiles,measurement,setting,value
"N=C(N)[Se]CCc1ccccc1 (as salt: hydrobromid) [PEISe, s-2-phenylethylisoselenourea hydrobromide]",melting point,,140 to 142 °C
"Br.Br.N=C(N)SCCc1ccc(CCSC(=N)N)cc1 [PBIT, s,s′-1,4-phenylene-bis(1,2-ethanediyl)bis-isothiourea dihydrobromide, reference compound]",IC50,[1],> 100 µM
same,IC50,"[2]; HCT-116, 24-72 hours, MTS, read-out: Inhibition of growth IC50, HCT-116 (Table II)",> 100 µM
same,IC50,[3],> 100 µM
same,IC50,"WM115 melanoma cell line; read-out: IC50, WM115 (Table I), WM115 melanoma, 24 hours treatment, MTS",> 100 µM
same,IC50,"WM115 melanoma cell line; read-out: Inhibition Cancer Cells IC50, WM115 (Table III), WM115 melanoma, 24 h, MTS",> 100 µM
same,IC50,"[4]; 1205Lu melanoma, 24 hours treatment, MTS",> 100 µM
same,IC50,[5],> 100 µM
same,IC50,[6],> 100 µM
same,IC50,[7],> 100 µM
same,IC50,[8],> 100 µM
same,IC50,"[9]; read-out: Inhibition Cancer Cells IC50, Caco-2 (Table III), Caco-2 colorectal adenocarcinoma",59.4 ± 3.8 µM
same,IC50,[9]; [18],59.4 ± 3.83 µM
same,"serum enzyme and metabolite levels, topical application","[10]; day 29, SGOT, SGPT, alkaline phosphatase, glucose, creatinine, urea nitrogen, total protein",no significant differences
same,"body weight, topical application","[10]; topical every day, 29 days",no detectable differences
same,IC50,[11],59 to 100 µM
same,IC50,"[12]; HT-29, 24-72 hours, MTS, read-out: Inhibition of growth IC50, HT-29 (Table II)",> 100 µM
same,IC50,"[13]; UACC 903 melanoma, 24 hours treatment, MTS",> 100 µM
same,iNOS expression,[14]; FIG. 4B,elevates
same,cyclin D1 levels,[14]; FIG. 4C,does not alter
same,IC50,[15],> 100 µM
same,total nitrate+nitrite levels compared to control PBS treated cells,[16],significantly reduces
"N=C(N)[Se]CCc1ccccc1 [PEISe, s-2-phenylethylisoselenourea hydrobromide]",IC50,"[2]; Homo sapiens, HCT-116, read-out: Inhibition of growth IC50, HCT-116 (Table II)",> 100 µM
same,IC50,"WM115 melanoma cell line; Homo sapiens, WM-115, 24 h, read-out: IC50, WM115 (Table I)",~80 µM
same,IC50,"[4]; Homo sapiens, 1205Lu, 24 h",> 100 µM
same,IC50,[9]; [18],16 ± 2 µM
same,IC50,"[12]; Homo sapiens, HT-29, read-out: Inhibition of growth IC50, HT-29 (Table II)",21.9 ± 2.1 µM
same,IC50,"[13]; Homo sapiens, UACC-903, 24 h",> 100 µM
same,IC50,[17],> 100 µM
